Several values for one entry are separate records, joined by “and”; a condition that tells them apart may be missing. Equal values may be shown once.
Target: T1, canine TRPM8 (Canis lupus familiaris, UniProt Q1A7N1)
T1 construct: expressed in transfected cells
Assay: In Vitro Canine TRPM8 Functional Assay (Ca2+ fluorescence, icilin activation)
Format: cell-based
Settings: for inhibition at 0.2 µM: HEK293, 0.2 μM compound; for IC50: HEK293 cells stably expressing canine TRPM8, icilin activation, Ca2+ fluorescence; for % Inh @ 1 μM: 1 μM compound; for inhibition at 0.5 µM: HEK293, 0.5 μM compound; for % Inh @ 0.2 μM: 0.2 μM compound; for % Inh @ 0.5 μM: 0.5 μM compound
Procedure, shortened: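 HEK293 cells stably expressing canine TRPM8, loaded with Calcium 3 dye; compounds added 5 min before icilin at a concentration giving ~80% maximal response. Peak icilin-evoked Ca2+ fluorescence, basal-subtracted and normalised to maximal response, fitted by sigmoidal nonlinear regression; quadruplicate wells.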

[1] = canine TRPM8 HEK293, icilin, 0.2 µM

T1 sequence (Q1A7N1 1-1104): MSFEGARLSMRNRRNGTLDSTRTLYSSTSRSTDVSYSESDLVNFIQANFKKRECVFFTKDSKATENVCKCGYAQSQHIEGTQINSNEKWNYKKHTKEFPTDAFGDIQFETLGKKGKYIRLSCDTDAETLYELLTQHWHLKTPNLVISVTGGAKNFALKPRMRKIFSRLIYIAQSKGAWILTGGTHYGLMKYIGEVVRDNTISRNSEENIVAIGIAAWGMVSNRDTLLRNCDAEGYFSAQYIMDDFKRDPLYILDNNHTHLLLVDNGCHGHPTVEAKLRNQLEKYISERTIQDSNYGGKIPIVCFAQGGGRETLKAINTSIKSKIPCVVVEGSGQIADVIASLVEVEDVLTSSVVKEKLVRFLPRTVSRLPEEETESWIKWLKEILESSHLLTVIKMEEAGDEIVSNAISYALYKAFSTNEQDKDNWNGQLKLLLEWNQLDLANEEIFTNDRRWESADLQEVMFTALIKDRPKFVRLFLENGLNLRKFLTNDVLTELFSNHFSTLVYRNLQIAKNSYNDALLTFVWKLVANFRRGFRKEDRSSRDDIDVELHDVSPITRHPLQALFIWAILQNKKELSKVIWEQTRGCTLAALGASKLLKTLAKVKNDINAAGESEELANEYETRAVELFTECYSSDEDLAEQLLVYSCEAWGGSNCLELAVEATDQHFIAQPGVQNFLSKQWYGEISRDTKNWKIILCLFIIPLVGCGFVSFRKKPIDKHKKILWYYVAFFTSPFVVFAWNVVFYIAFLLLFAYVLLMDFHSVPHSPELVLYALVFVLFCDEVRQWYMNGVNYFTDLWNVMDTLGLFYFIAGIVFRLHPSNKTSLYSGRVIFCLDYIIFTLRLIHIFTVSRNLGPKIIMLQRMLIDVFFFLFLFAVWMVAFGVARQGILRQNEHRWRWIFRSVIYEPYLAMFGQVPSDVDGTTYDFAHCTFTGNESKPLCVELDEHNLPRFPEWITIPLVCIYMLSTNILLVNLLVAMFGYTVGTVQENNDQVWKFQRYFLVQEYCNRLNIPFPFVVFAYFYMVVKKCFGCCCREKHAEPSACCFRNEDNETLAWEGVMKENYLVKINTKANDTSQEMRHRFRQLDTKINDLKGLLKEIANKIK

IC50 | inhibition at 0.5 µM (canine TRPM8 HEK293, icilin) [%] | Structure (SMILES) | also measured
89 nM |  | CN(C)c1ccc(C2CCCN2C(=O)C(Nc2ccccc2F)c2ccc(Br)cc2)cc1 (centres unmarked) [Cpd 271] | inhibition at 0.2 µM (canine TRPM8 HEK293, icilin): 90%
72.6 nM |  | CC(C)(C)c1ccc(C(Nc2ccccc2)C(=O)N2CCCC2c2ccccc2Cl)cc1 (single isomer, unassigned) [Cpd 2] | % Inh @ 1 μM (canine TRPM8 HEK293, icilin): 100.93%
10.1 nM | 97 | O=C(C(Nc1ccccc1F)c1ccc(Cl)cc1)N1CCCC1c1ccccc1F (centres unmarked) [Cpd 115] | 
51 nM |  | COC(=O)c1cccc(NC(C(=O)N2CCCC2c2ccccc2F)c2ccc3c(c2)CCO3)c1 (centres unmarked) [Cpd 311] | inhibition at 0.2 µM (canine TRPM8 HEK293, icilin): 99%
 |  | O=C(C(Nc1ccccc1F)c1cncc2ccccc12)N1CCCC1c1ccccc1F (single isomer, unassigned) [Cpd 333] | % Inh @ 0.2 μM [1]: 62%
6.9 nM |  | O=C(C(Nc1ccccc1F)c1ccc(C(F)(F)F)cc1)N1CCCC1c1ccccc1F (mixture of isomers) [Cpd 131] | % Inh @ 0.5 μM (canine TRPM8 HEK293, icilin): 103%
5 nM | 102 | O=C(C(Nc1ccccc1F)c1ccc(C(F)(F)F)cc1)N1CCCC1c1ccccc1 (racemic) [Cpd 69] | 
105 nM | 101 | O=C(C(Nc1ccccc1)c1ccc(C(F)(F)F)cc1)N1CCCC1c1ccccc1F (single isomer, unassigned) [Cpd 45] | 
12 nM | 99 | COc1ccccc1C1CCCN1C(=O)C(Nc1ccccc1F)c1ccc(C(F)(F)F)cc1 (centres unmarked) [Cpd 148] | 
 |  | CNC(=O)c1ccc(C(Nc2c(F)cccc2F)C(=O)N2CCCC2c2ccccc2F)cc1 (mixture of isomers) [Cpd 265] | % Inh @ 0.2 μM (canine TRPM8 HEK293, icilin): 15%
376 nM | 83.6 | O=C(C(Nc1ccccc1)c1ccc(C(F)(F)F)cc1)N1CCCC1c1ccccn1 (centres unmarked) [Cpd 50] | 
26.5 nM |  | O=C(C(Nc1cc(F)ccc1F)c1ccc(Cl)cc1)N1CCCC1c1ccccc1F (centres unmarked) [Cpd 170] | inhibition at 0.2 µM (canine TRPM8 HEK293, icilin): 100%
65 nM and 69 nM |  | O=C(C(Nc1ccccc1F)c1ccc(-c2ccccn2)cc1)N1CCCC1c1ccccc1F (single isomer, unassigned) [Cpd 297] | % Inh @ 0.2 μM [1]: 85% and 87%
120 nM |  | O=C(C(Nc1ccccc1F)c1cc2ccccc2s1)N1Cc2cccnc2C1 (centres unmarked) [Cpd 370] | 
 |  | CC(C)(C)c1ccc(C(Nc2ccccc2)C(=O)N2CCCC2c2ccccn2)cc1 (centres unmarked) [Cpd 54] | % Inh @ 0.5 μM (canine TRPM8 HEK293, icilin): 69.055%
69 nM |  | COc1ccccc1C1CCCN1C(=O)C(Nc1ccccc1F)c1ccc(Br)cc1 (single isomer, unassigned) [Cpd 175] | inhibition at 0.2 µM (canine TRPM8 HEK293, icilin): 85%
112 nM |  | O=C(C(Nc1ccccc1F)c1ccc(Br)cc1)N1[C@H](CO)CC[C@@H]1c1ccccc1 (mixture of isomers) [Cpd 238] | 
 |  | O=C(C(c1ccc(C(F)(F)F)cc1)N1CCCc2ccccc21)N1CCCC1c1cccnc1 (mixture of isomers) [Cpd 336] | % Inh @ 0.2 μM (canine TRPM8 HEK293, icilin): 43%
92 nM |  | COC(=O)c1ccc(C2CCCN2C(=O)C(Nc2ccccc2F)c2ccc3c(c2)CCO3)cc1 (centres unmarked) [Cpd 351] | inhibition at 0.2 µM (canine TRPM8 HEK293, icilin): 83%
4 nM |  | O=C(C(Nc1ccccc1F)c1ccc(-c2ccccc2)nc1)N1CCC[C@H]1c1ccccc1F (single isomer, unassigned) [Cpd 307] | inhibition at 0.2 µM (canine TRPM8 HEK293, icilin): 102%

IC50 | inhibition at 0.5 µM (canine TRPM8 HEK293, icilin) [%] | Structure (SMILES) | also measured
170 nM | 98 | O=C(C(CNc1ccccc1F)c1ccc(C(F)(F)F)cc1)N1Cc2ccccc2C1 (centres unmarked) [Cpd 106] | 
 |  | CC(C)(C)c1ccc(C(Nc2ccccc2F)C(=O)N2CCCC2c2ccccc2F)cn1 (single isomer, unassigned) [Cpd 356] | % Inh @ 0.2 μM (canine TRPM8 HEK293, icilin): 57%
142 nM | 92 | O=C(C(Nc1cccc(F)c1F)c1ccc(Cl)cc1)N1Cc2ccccc2C1 (centres unmarked) [Cpd 169] | 
89 nM | 98 | O=C(C(Nc1ccccc1F)c1ccc(Br)cc1)N1Cc2ccccc2C1 (centres unmarked) [Cpd 92] | 
40.9 nM | 104 | O=C(C(Nc1ccccc1)c1ccc(C(F)(F)F)cc1)N1CCCC1c1ccccc1Br (centres unmarked) [Cpd 29] | 
101 nM |  | O=C(C(Nc1ccc(F)cc1)c1ccc(C(F)(F)F)cc1)N1CCCC1c1ccccc1 (single isomer, unassigned) [Cpd 76] | % Inh @ 0.5 μM (canine TRPM8 HEK293, icilin): 97%
30 nM |  | COc1ccccc1C1CCCN1C(=O)C(Nc1ccccc1F)c1ccc(Br)cc1 (single isomer, unassigned) [Cpd 176] | % Inh @ 0.2 μM [1]: 94%
636 nM |  | CC(C)(C)c1ccc(C(Nc2ccccc2)C(=O)N2CCCC2c2ccc(Cl)cc2)cc1 (single isomer, unassigned) [Cpd 7] | % Inh @ 1 μM (canine TRPM8 HEK293, icilin): 89.12%
416 nM |  | CC(C)(C)c1ccc(C(Nc2ccccc2)C(=O)N2CCCCC2Cc2ccccc2)cc1 (centres unmarked) [Cpd 14] | inhibition at 1 µM (HEK293, 1 μM compound, canine TRPM8 HEK293, icilin): 102%
44.4 nM |  | CN(c1ccccc1F)C(C(=O)N1Cc2ccccc2C1)c1ccc(C(F)(F)F)cc1 (centres unmarked) [Cpd 229] | 
7 nM |  | COC(=O)C1CCC(c2ccccc2)N1C(=O)C(Nc1c(F)cccc1F)c1ccc(Br)cc1 (centres unmarked) [Cpd 210] | inhibition at 0.2 µM (canine TRPM8 HEK293, icilin): 99%
25 nM |  | O=C(C(Nc1ccccc1F)c1cc2ccccc2s1)N1CCCC1c1cccnc1 (centres unmarked) [Cpd 319] | inhibition at 0.2 µM (canine TRPM8 HEK293, icilin): 94%
 |  | O=C(C(Nc1ccccc1F)c1ccc(-c2ccc(-c3nnn[nH]3)cc2)cc1)N1CCC[C@H]1c1ccccc1F (stereo partly drawn) [Cpd 354, 2-(2-Fluoro-phenylamino)-1-[(2S)-2-(2-fluoro-phenyl)-pyrrolidin-1-yl]-2-[4′-(1H-tetrazol-5-yl)-biphenyl-4-yl]-ethanone] | inhibition at 0.2 µM (canine TRPM8 HEK293, icilin): 53%
104 nM |  | O=C(C(Nc1ccccc1F)c1ccc(C(F)(F)F)cc1)N1CCCC1c1ccccc1F (single isomer, unassigned) [Cpd 154] | % Inh @ 0.5 μM (canine TRPM8 HEK293, icilin): 97.552%
10 nM |  | CN(C)c1ccc(C2CCCN2C(=O)C(Nc2ccccc2F)c2ccc(C(F)(F)F)cc2)cc1 (centres unmarked) [Cpd 178] | inhibition at 0.2 µM (canine TRPM8 HEK293, icilin): 100%
34 nM | 97 | COc1ccccc1C1CCCN1C(=O)C(Nc1cccc(F)c1F)c1ccc(Cl)cc1 (centres unmarked) [Cpd 167] | 
5 nM |  | O=C(C(Nc1ccccc1F)c1ccc(C(F)(F)F)cc1)N1CCCC1c1ccccc1 (single isomer, unassigned) [Cpd 191] | % Inh @ 0.2 μM [1]: 100%
28 nM |  | COC(=O)c1cccc(C2CCCN2C(=O)C(Nc2ccccc2F)c2cc3ccccc3s2)c1 (centres unmarked) [Cpd 324, 3-{1-[2-Benzo[b]thiophen-2-yl-2-(2-fluoro-phenylamino)-acetyl]-pyrrolidin-2-yl}-benzoic acid methyl ester] | inhibition at 0.2 µM (canine TRPM8 HEK293, icilin): 101%
56 nM | 100 | COc1ccccc1C1CCCN1C(=O)C(Nc1ccccc1)c1cccc(C(F)(F)F)c1 (centres unmarked) [Cpd 98] | 
207 nM | 99.9 | CC(C)(C)c1ccc(C(Nc2ccccc2)C(=O)N2CCCC2c2ccccn2)cc1 (centres unmarked) [Cpd 55] | 

IC50 | inhibition at 0.5 µM (canine TRPM8 HEK293, icilin) [%] | Structure (SMILES) | also measured
 |  | COC(=O)C1CCC(c2ccccc2)N1C(=O)C(Nc1ccccc1)c1ccc(Cl)cc1 (centres unmarked) [Cpd 207] | % Inh @ 0.2 μM [1]: 47%
 |  | O=C(C(Cc1c(F)cccc1F)c1ccc(C(F)(F)F)cc1)N1CCCC1c1cccnc1 (mixture of isomers) [Cpd 268] | % Inh @ 0.2 μM [1]: 13% and 15%
50 nM | 98 | COc1ccccc1C1CCCN1C(=O)C(Nc1cccc(F)c1)c1ccc(C(F)(F)F)cc1 (centres unmarked) [Cpd 79] | 
 |  | O=C(C(Nc1ccccc1F)c1cnc2ccccc2c1)N1CCCC1c1cccnc1 (single isomer, unassigned) [Cpd 298] | % Inh @ 0.2 μM (canine TRPM8 HEK293, icilin): 22%
110 nM |  | CN(C)c1ccc(C2CCCN2C(=O)C(Nc2ccccc2F)c2ccc(Cl)cc2)cc1 (centres unmarked) [Cpd 272] | inhibition at 0.2 µM (canine TRPM8 HEK293, icilin): 96%
14 nM | 97 | O=C(C(Nc1ccccc1F)c1ccc(Br)cc1)N1CCCC1c1ccccc1 (centres unmarked) [Cpd 91] | 
14 nM |  | O=C(C(Nc1ccccc1F)c1ccc2c(c1)CCO2)N1CCC[C@H]1c1ccccc1F (mixture of isomers) [Cpd 286] | inhibition at 0.2 µM (canine TRPM8 HEK293, icilin): 96%
422 nM |  | O=C(C(c1ccc(C(F)(F)F)cc1)N1CCCc2ccccc21)N1CCCC1c1ccccc1 (centres unmarked) [Cpd 291] | inhibition at 0.2 µM (canine TRPM8 HEK293, icilin): 72%
 |  | O=C(C(Nc1ccccc1F)c1ccc2ncccc2c1)N1CCCC1c1ccccc1Cl (single isomer, unassigned) [Cpd 315] | % Inh @ 0.2 μM (canine TRPM8 HEK293, icilin): 49%
193 nM | 90 | COc1ccc(NC(C(=O)N2CCCC2c2ccccc2Cl)c2ccc(Cl)cc2)cc1 (centres unmarked) [Cpd 136] | 
76 nM |  | COC(=O)C1CCC(c2ccccc2)N1C(=O)C(Nc1ccccc1)c1ccc(Cl)cc1 (single isomer, unassigned) [Cpd 206] | inhibition at 0.2 µM (canine TRPM8 HEK293, icilin): 92%
78 nM |  | O=C(O)c1cccc(C2CCCN2C(=O)C(Nc2ccccc2F)c2cc3ccccc3s2)c1 (centres unmarked) [Cpd 326, 3-{1-[2-Benzo[b]thiophen-2-yl-2-(2-fluoro-phenylamino)-acetyl]-pyrrolidin-2-yl}-benzoic acid] | inhibition at 0.2 µM (canine TRPM8 HEK293, icilin): 97%
53.7 nM |  | O=C(C(Nc1ccccc1)c1ccc(Cl)cc1)N1[C@H](CO)CC[C@@H]1c1ccccc1 (single isomer, unassigned) [Cpd 235] | 
138 nM | 94 | O=C(C(Nc1cccc(F)c1)c1ccc(C(F)(F)F)cc1)N1CCCC1c1ccccc1Cl (centres unmarked) [Cpd 78] | 
17 nM |  | COC(=O)C1CCC(c2ccccc2)N1C(=O)C(Nc1ccccc1)c1ccc(Cl)cc1 (single isomer, unassigned) [Cpd 212] | % Inh @ 0.2 μM [1]: 99%
42.5 nM |  | O=C(C(Nc1ccccc1)c1cnc2ccccc2c1)N1CCCC1c1ccccc1F (centres unmarked) [Cpd 226] | 
86.9 nM | 97 | O=C(C(Nc1ccc(F)cc1F)c1ccc(Cl)cc1)N1Cc2cccc(F)c2C1 (centres unmarked) [Cpd 127] | 
9 nM | 92 | O=C(C(Nc1ccccc1F)c1ccc(Cl)cc1)N1CCC[C@H]1c1ccccc1F (mixture of isomers) [Cpd 156] | 
